Results: patent US6596497B1, “Screening of antiviral compounds targeted to the HIV-1 gp41 core structure” (New York Blood Center, Inc., priority 1999, dated 2003)
Converted amounts (≈) assume the structure as drawn. Read-outs that look alike come from different tables or passages of the source.

Tests used:
HIV-1IIIB = assay: HIV-1-mediated cytopathic effect (CPE), XTT; assay type: cell-based; conditions: for selectivity ratio at 6 days: human, read-out: Selective Index (S.I.) = CC50/IC50 for CPE
Procedure: The inhibitory activity of the compounds was determined by a calorimetric method based on protection of cells against HIV-1-mediated CPE, as described in Jiang et al., (1991), J. Exp. Med., 174, 1557-1563. 1×10^4 MT-2 cells in 96-well plates were infected with diluted HIV-1IIIB in 200 μl RPMI 1640 medium containing 10% FBS in the presence of compounds at graded concentrations. After 1 hour, 24 hours and 4 days, half of the culture media were changed. On the sixth day post infection, an indicator, XTT tetrazolium dye (1 mg/ml; 50 μl/well; PolySciences, Inc., Warrington, Pa.), was added to the cells. After 4 hours, the soluble intracellular formazan was determined calorimetrically at 450 nm. The percent of inhibition of CPE and the IC50 values were calculated as described above.

[1] = In vitro cytotoxicity, XTT; assay type: cell-based; conditions: human
Procedure: The in vitro cytotoxicity for MT-2 cells of the compounds was determined in 96-well plates using the XTT dye to measure cell viability in the absence of virus. Ten μl of 5% TRITON X-100 were added to the wells corresponding to positive controls (“P”) and 10 μl medium was added to wells corresponding to negative controls (“N”). The percent cytotoxicity was calculated using the following formula: % cytotoxicity=[(E−N)/(P−N)]×100%, wherein “E” represents experimental data in the presence of compounds. The concentration corresponding to 50% cytotoxicity (CC50) for MT-2 cells was calculated using the Calcusyn computer program. The selectivity index (S.I.=CC50/IC50) for each compound was calculated.

[2] = tested on: H9/HIV-1IIIB cells and MT-2 cells; assay: cells; assay type: cell-based; conditions: for IC50: Human immunodeficiency virus 1, MT2, 2 h, read-out: IC50 ± SD Cell fusion
Procedure: A dye transfer assay was used for detection of HIV-1-mediated cell fusion as described in Jiang et al., Nature, 365, 113 (1993). H9/HIV-1IIIB cells were labeled with a fluorescent reagent, 2′,7′-bis-(2-carboxyethyl)-5-and-6-carboxyfluorescein acetoxyethyl ester (BCECF-AM), (Molecular Probes, Inc., Eugene, Oreg.) and incubated with MT-2 cells (ratio=1:10) in a 96-well plate at 37° C. for 2 hours in the presence or absence of peptides or compounds tested. The fused and unfused BCECF-labeled HIV-1 infected cells were counted under an inverted fluorescence microscope (Zeiss, Germany) with an eyepiece micrometer discs. The percentage of inhibition of cell fusion was calculated as described in Jiang et al., 1993, Nature, 365, 113.
A dye transfer assay was used for detection of HIV-1 mediated cell fusion as described in Jiang, S., K. Lin, N. Strick, and A. R. Neurath, 1993, Inhibition of HIV-1 infection by a fusion domain binding peptide from HIV-1 envelope glycoprotein gp41, Biochem. Biophys. Res. Commun., 195, 533-538.
H9/HIV-1IIIB cells were labeled with a fluorescent reagent, 2′,7′-bis-(2-carboxyethyl)-5-and-6-carboxyfluorescein acetoxyethyl ester (BCECF-AM) (Molecular Probes, Inc., Eugene, Oreg.) and then incubated with MT-2 cells (ratio=1:10) in 96-well plates at 37° C. for 2 hours in the presence or absence of the compounds tested. The fused and unfused BCECF-labeled HIV-1 infected cells were counted under an inverted fluorescence microscope (Zeiss, Germany) with an eyepiece micrometer disc. The percentage of inhibition of cell fusion and the IC50 values were calculated as described in Jiang et al., (1993), Biochem. Biophys. Res. Commun., 195, 533-538.

[3] = target: T1, N-36/C-34 complex (HIV-1 gp41 core) (Human immunodeficiency virus type 1 group M subtype B, UniProt P04578); assay: biochemical; assay type: binding
T1 construct: Peptides derived from the NHR and CHR regions of gp41, designated N- and C-peptides; made in house; host or cells: chemical synthesis (solid-phase FMOC)
T1 sequence (P04578 546-581, one chain of several): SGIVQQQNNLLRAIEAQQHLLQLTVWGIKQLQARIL
Procedure: For detection of peptide complexes, a direct and a sandwich ELISA were used. In the direct ELISA, the N- and C-peptides were mixed at equimolar concentration in PBS and diluted in coating buffer. Then, the peptide complexes were directly coated onto the wells of microplate. In the sandwich ELISA, the plate was coated with IgG (10 μg/ml) purified from rabbit antisera directed against N36(L6)C34, followed by the addition of the peptide complexes formed by mixing N- and C-peptides in PBS in equimolar concentrations. To screen for antiviral agents, compounds were pre-incubated with N-peptides at 37° C. for 30 minutes before mixing with the C-peptides. The binding of the peptide complexes to the antibodies was then detected as described above.
The percentage of inhibition by the compounds of the binding of NC-1 to the peptide complexes was calculated as described in Jiang, S., K. Lin, and A. R. Neurath, 1991, “Enhancement of human immunodeficiency virus type-1 (HIV-1) infection by antisera to peptides from the envelope glycoproteins gp120/gp41”, J. Exp. Med., 174, 1557-1563.
A sandwich ELISA was established to screen for compounds that interfere with the formation of the N-36/C-34 complex. N-36 (2 μM) was preincubated with compounds at graded concentrations at 37° C. for 30 minutes, followed by the addition of C-34 (2 μM). After incubation at 37° C. for 30 minutes, the mixture was added to wells of a 96-well polystyrene plate (Immulon I, Dynatech Laboratories, Inc., Chantilly, Va.) which were precoated with IgG (10 μg/ml) purified from rabbit antisera directed against N36(L6)C34. […] Absorbance at 450 nm (A450) was read using an ELISA reader (Dynatech Laboratories, Inc., Chantilly, Va.). The percentage of inhibition by the compounds of the binding of NC-1 to the peptide complexes was calculated as described in Jiang S., K. Lin, and A. R. Neurath, 1991, “Enhancement of human immunodeficiency virus type-1 (HIV-1) infection by antisera to peptides from the envelope glycoproteins gp120/gp41”, J. Exp. Med., 174, 1557-1563. The concentration for 50% inhibition (IC50) was calculated using a computer program, designated Calcusyn (Chou, T.-C., 1991, “The median-effect principle and the combination index for quantitation of synergism and antagonism. In Synergism and Antagonism in Chemotherapy”, T.-C. Chou and D. C. Rideout, editors, Academic Press, San Diego, 61-102).

[4] = Human immunodeficiency virus 1, MT2, read-out: IC50 ± SD CPE
[5] = 50% cytotoxic concentration, MT-2 cells, no virus, read-out: CC50 ± SD
[6] = Human immunodeficiency virus 1, MT2, MT-2 cells, sixth day post infection, read-out: IC50 ± SD CPE

SMILES	IC50 (HIV-1IIIB; [4]) [µg/mL]	selectivity ratio at 6 days (HIV-1IIIB; MT-2 cells)	Inhibitory activity on HIV-1-mediated CPE (in words) (HIV-1IIIB; no concentration stated)	CC50 [1, 5] [µg/mL]	IC50 [2] [µg/mL]	Inhibitory activity on HIV-1-mediated cell fusion (in words) ([2]; no concentration stated)	IC50 [3] [µM]	Inhibitory activity on complex formation by N-36 and C-34 (in words) ([3]; no concentration stated)	IC50 (HIV-1IIIB; [6]) [µg/mL]	CC50 [1] [µg/mL]
Cc1ccc(N=Nc2c(S(=O)(=O)O)cc3cc(S(=O)(=O)O)cc(Nc4nc(Cl)nc(Nc5ccccc5)n4)c3c2O)c(S(=O)(=O)O)c1 [ADS-J2, 5-[(4-chloro-6-phenylamino-1,3,5-triazine-2-yl)-amino]-4-hydroxy-3-[(4-methyl-6-sulfophenyl)azo]-2,7-naphthalene disulfonic acid]	30.8 ± 6.74 (≈ 42.6 µM)	9.43	promising inhibitory activity	290 ± 12.4 (≈ 402 µM)	21.9 ± 1.38 (≈ 30.3 µM)	promising inhibitory activity	4.4	promising inhibitory activity		
C=CC1C[N@@]2CCC1C[C@@H]2C(OC(=O)c1ccc(OC)cc1)c1ccnc2ccccc12 (stereo partly shown) [ADS-J4]		≤ 1			> 100		> 233		> 100	74.1 ± 0.76 (≈ 173 µM)
CC(c1nc2ccc(Cl)cc2c(=O)n1Cc1ccccc1)N(C(=O)c1ccc([N+](=O)[O-])cc1)c1ccc(F)cc1 (stereo not shown) [ADS-J5]	> 100	≤ 1		30.2 ± 4.84 (≈ 54.2 µM)	> 100		> 180			
C/C(=N/OC(=O)NS(=O)(=O)c1ccc(C)cc1)c1cc2ccccc2oc1=O [ADS-J6]	> 100	≤ 1		286 ± 19.3 (≈ 714 µM)	> 100		> 250			
CCC1C[N@@]2CCC1C[C@@H]2C(OC(=O)c1ccccc1Cl)c1ccnc2ccc(OC)cc12 (stereo partly shown) [ADS-J7]		≤ 1			59.8 ± 8.69 (≈ 129 µM)		> 215		> 100	41.3 ± 2.38 (≈ 88.9 µM)
O=C(Nc1cc([N+](=O)[O-])ccc1-c1ccc([N+](=O)[O-])cc1)c1ccc([N+](=O)[O-])cc1Cl [ADS-J9]	> 100	≤ 1		47.2 ± 5.48 (≈ 107 µM)	> 100		> 226			
O=C(Nc1ccc(Cl)c(Cl)c1)O/N=C(/c1ccccc1)c1ccc(-c2ccccc2)cc1 [ADS-J10]	> 100	≤ 1		74.7 ± 6.04 (≈ 162 µM)	> 100		> 217			
Cc1ccc(N(C(=O)Nc2ccccc2)C(C)c2nc3ccccc3c(=O)[nH]2)c(C)c1 (stereo not shown) [ADS-J11]	> 100	≤ 1		40.8 ± 1.67 (≈ 98.8 µM)	> 100		> 242			
